Results: ChEMBL document CHEMBL3046208, “Natural and synthetic podolactones with potential use as natural herbicide models” (2000)
Active and inactive are the calls of the source. No cut-off for these calls is given here.

Legend:
Triticum aestivum [1] = assay: Stimulation of root length of Triticum aestivum (wheat) at 0.1 mM after 5 days relative to untreated control; type: functional
Solanum lycopersicum [2] = assay: Inhibition of germination of Solanum lycopersicum (tomato) at 10 uM after 5 days relative to untreated control; type: functional, organism-based
Solanum lycopersicum [3] = assay: Stimulation of root length of Solanum lycopersicum (tomato) at 0.1 mM after 5 days relative to untreated control; type: functional
Triticum aestivum [4] = assay: Stimulation of shoot length of Triticum aestivum (wheat) at 0.1 mM after 5 days relative to untreated control; type: functional
Lactuca sativa [5] = assay: Stimulation of root length of Lactuca sativa cv. Roman (lettuce) at 0.1 mM after 5 days relative to untreated control; type: functional
Hordeum vulgare [6] = assay: Stimulation of shoot length of Hordeum vulgare (barley) at 0.1 mM after 5 days relative to untreated control; type: functional
Solanum lycopersicum [7] = assay: Inhibition of shoot length of Solanum lycopersicum (tomato) at 10 uM after 5 days relative to untreated control; type: functional, organism-based
Lactuca sativa [8] = assay: Inhibition of root length of Lactuca sativa cv. Roman (lettuce) at 0.1 mM after 5 days relative to untreated control; type: functional; conditions: 120 h
Lactuca sativa [9] = assay: Inhibition of shoot length of Lactuca sativa cv. Nigra (lettuce) at 0.1 mM after 5 days relative to untreated control; type: functional; conditions: 120 h
Lepidium sativum [10] = assay: Inhibition of shoot length of Lepidium sativum at 0.1 mM after 5 days relative to untreated control; type: functional; conditions: 120 h
Solanum lycopersicum [11] = assay: Stimulation of germination of Solanum lycopersicum (tomato) at 0.1 mM after 5 days relative to untreated control; type: functional
Lepidium sativum [12] = assay: Stimulation of germination of Lepidium sativum at 0.1 mM after 5 days relative to untreated control; type: functional
Triticum aestivum [13] = assay: Inhibition of root length of Triticum aestivum (wheat) at 0.1 mM after 5 days relative to untreated control; type: functional; conditions: 120 h
Lepidium sativum [14] = assay: Inhibition of germination of Lepidium sativum at 10 uM after 5 days relative to untreated control; type: functional, organism-based
Hordeum vulgare [15] = assay: Stimulation of germination of Hordeum vulgare (barley) at 0.1 mM after 5 days relative to untreated control; type: functional
Solanum lycopersicum [16] = assay: Stimulation of shoot length of Solanum lycopersicum (tomato) at 0.1 mM after 5 days relative to untreated control; type: functional
Solanum lycopersicum [17] = assay: Inhibition of root length of Solanum lycopersicum (tomato) at 10 uM after 5 days relative to untreated control; type: functional, organism-based
Hordeum vulgare [18] = assay: Inhibition of germination of Hordeum vulgare (barley) at 0.1 mM after 5 days relative to untreated control; type: functional; conditions: 120 h
Allium cepa [19] = assay: Inhibition of root length of Allium cepa (onion) at 0.1 mM after 5 days relative to untreated control; type: functional; conditions: 120 h
Lepidium sativum [20] = assay: Inhibition of germination of Lepidium sativum at 0.1 mM after 5 days relative to untreated control; type: functional; conditions: 120 h
Allium cepa [21] = assay: Inhibition of germination of Allium cepa (onion) at 0.1 mM after 5 days relative to untreated control; type: functional; conditions: 120 h
Hordeum vulgare [22] = assay: Inhibition of shoot length of Hordeum vulgare (barley) at 0.1 mM after 5 days relative to untreated control; type: functional; conditions: 120 h
Allium cepa [23] = assay: Inhibition of shoot length of Allium cepa (onion) at 0.1 mM after 5 days relative to untreated control; type: functional; conditions: 120 h
Lactuca sativa [24] = assay: Stimulation of root length of Lactuca sativa cv. Nigra (lettuce) at 0.1 mM after 5 days relative to untreated control; type: functional
Lactuca sativa [25] = assay: Stimulation of germination of Lactuca sativa cv. Roman (lettuce) at 0.1 mM after 5 days relative to untreated control; type: functional
Lepidium sativum [26] = assay: Inhibition of root length of Lepidium sativum at 0.1 mM after 5 days relative to untreated control; type: functional; conditions: 120 h
Allium cepa [27] = assay: Stimulation of shoot length of Allium cepa (onion) at 0.1 mM after 5 days relative to untreated control; type: functional
Lactuca sativa [28] = assay: Stimulation of shoot length of Lactuca sativa cv. Nigra (lettuce) at 0.1 mM after 5 days relative to untreated control; type: functional
Solanum lycopersicum [29] = assay: Inhibition of germination of Solanum lycopersicum (tomato) at 0.1 mM after 5 days relative to untreated control; type: functional; conditions: 120 h
Triticum aestivum [30] = assay: Stimulation of germination of Triticum aestivum (wheat) at 0.1 mM after 5 days relative to untreated control; type: functional
Lepidium sativum [31] = assay: Stimulation of shoot length of Lepidium sativum at 0.1 mM after 5 days relative to untreated control; type: functional
Allium cepa [32] = assay: Stimulation of root length of Allium cepa (onion) at 0.1 mM after 5 days relative to untreated control; type: functional
Solanum lycopersicum [33] = assay: Inhibition of root length of Solanum lycopersicum (tomato) at 0.1 mM after 5 days relative to untreated control; type: functional; conditions: 120 h
Triticum aestivum [34] = assay: Inhibition of germination of Triticum aestivum (wheat) at 0.1 mM after 5 days relative to untreated control; type: functional
Lepidium sativum [35] = assay: Stimulation of root length of Lepidium sativum at 0.1 mM after 5 days relative to untreated control; type: functional
Lepidium sativum [36] = assay: Inhibition of shoot length of Lepidium sativum at 10 uM after 5 days relative to untreated control; type: functional, organism-based
Allium cepa [37] = assay: Stimulation of germination of Allium cepa (onion) at 0.1 mM after 5 days relative to untreated control; type: functional
Hordeum vulgare [38] = assay: Inhibition of root length of Hordeum vulgare (barley) at 0.1 mM after 5 days relative to untreated control; type: functional; conditions: 120 h
Solanum lycopersicum [39] = assay: Inhibition of shoot length of Solanum lycopersicum (tomato) at 0.1 mM after 5 days relative to untreated control; type: functional; conditions: 120 h
Hordeum vulgare [40] = assay: Stimulation of root length of Hordeum vulgare (barley) at 0.1 mM after 5 days relative to untreated control; type: functional
Lactuca sativa [41] = assay: Stimulation of shoot length of Lactuca sativa cv. Roman (lettuce) at 0.1 mM after 5 days relative to untreated control; type: functional
Lactuca sativa [42] = assay: Inhibition of root length of Lactuca sativa cv. Nigra (lettuce) at 0.1 mM after 5 days relative to untreated control; type: functional; conditions: 120 h
Lactuca sativa [43] = assay: Stimulation of germination of Lactuca sativa cv. Nigra (lettuce) at 0.1 mM after 5 days relative to untreated control; type: functional
Lactuca sativa [44] = assay: Inhibition of germination of Lactuca sativa cv. Nigra (lettuce) at 0.1 mM after 5 days relative to untreated control; type: functional
Lepidium sativum [45] = assay: Inhibition of root length of Lepidium sativum at 10 uM after 5 days relative to untreated control; type: functional, organism-based
Lactuca sativa [46] = assay: Inhibition of shoot length of Lactuca sativa cv. Roman (lettuce) at 0.1 mM after 5 days relative to untreated control; type: functional; conditions: 120 h
Lactuca sativa [47] = assay: Inhibition of germination of Lactuca sativa cv. Roman (lettuce) at 0.1 mM after 5 days relative to untreated control; type: functional; conditions: 120 h
Triticum aestivum [48] = assay: Inhibition of shoot length of Triticum aestivum (wheat) at 0.1 mM after 5 days relative to untreated control; type: functional; conditions: 120 h

C[C@@]12CCC[C@]3(C)C4=CC(=O)OCC4=C[C@@H](OC1=O)[C@@H]23
Activity (Triticum aestivum [1]): 20% | inhibition (Solanum lycopersicum [2]): Active | Activity (Solanum lycopersicum [3]): >40% | Activity (Triticum aestivum [4]): <20% | Activity (Lactuca sativa [5]): >40% | Activity (Hordeum vulgare [6]): >40% | inhibition (Solanum lycopersicum [7]): Active | inhibition at 100 µM (Lactuca sativa [8]): > 40% | inhibition at 100 µM (Lactuca sativa [9]): > 40% | inhibition at 100 µM (Lepidium sativum [10]): > 40% | Activity (Solanum lycopersicum [11]): >40% | Activity (Lepidium sativum [12]): >40% | inhibition at 100 µM (Triticum aestivum [13]): 20% | inhibition (Lepidium sativum [14]): Active | Activity (Hordeum vulgare [15]): 20% | Activity (Solanum lycopersicum [16]): >40% | inhibition (Solanum lycopersicum [17]): Active | inhibition at 100 µM (Hordeum vulgare [18]): 20% | inhibition at 100 µM (Allium cepa [19]): > 40% | inhibition at 100 µM (Lepidium sativum [20]): > 40% | inhibition at 100 µM (Allium cepa [21]): 20% | inhibition at 100 µM (Hordeum vulgare [22]): > 40% | inhibition at 100 µM (Allium cepa [23]): > 40% | Activity (Lactuca sativa [24]): >40% | Activity (Lactuca sativa [25]): 20% | inhibition at 100 µM (Lepidium sativum [26]): > 40% | Activity (Allium cepa [27]): >40% | Activity (Lactuca sativa [28]): >40% | inhibition at 100 µM (Solanum lycopersicum [29]): > 40% | Activity (Triticum aestivum [30]): inactive | Activity (Lepidium sativum [31]): >40% | Activity (Allium cepa [32]): >40% | inhibition at 100 µM (Solanum lycopersicum [33]): > 40% | inhibition (Triticum aestivum [34]): inactive | Activity (Lepidium sativum [35]): >40% | inhibition (Lepidium sativum [36]): Active | Activity (Allium cepa [37]): 20% | inhibition at 100 µM (Hordeum vulgare [38]): > 40% | inhibition at 100 µM (Solanum lycopersicum [39]): > 40% | Activity (Hordeum vulgare [40]): >40% | Activity (Lactuca sativa [41]): >40% | inhibition at 100 µM (Lactuca sativa [42]): > 40% | Activity (Lactuca sativa [43]): inactive | inhibition (Lactuca sativa [44]): inactive | inhibition (Lepidium sativum [45]): Active | inhibition at 100 µM (Lactuca sativa [46]): > 40% | inhibition at 100 µM (Lactuca sativa [47]): 20% | inhibition at 100 µM (Triticum aestivum [48]): < 20%
